pIC50: −log10 of the molar value.
Test system: 817829-284-R-J1-PDC complex spheroid viability
Assay: Anticancer human tumor 817829-284-R-J1-PDC patient-derived colon adenocarcinoma cell line growth inhibition [POLQ]
Conditions: for pIC50: curve of first compound; for viability, T/C: stronger effect = lower value
Procedure, shortened: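 Three-cell-type spheroids modelling solid tumor plus stroma served as the readout system; POL inhibitors were tested individually and in combination, concentration ranges set by clinical Cmax where known.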

[1] = second compound 0.0316 µM, first compound 0.00316 µM
[2] = second compound 0.0316 µM, first compound 0.01 µM
[3] = second compound 0.0316 µM, first compound 0.0316 µM
[4] = second compound 0.0316 µM, first compound 0.1 µM
[5] = second compound 0.1 µM, first compound 0.00316 µM
[6] = second compound 0.1 µM, first compound 0.01 µM
[7] = second compound 0.1 µM, first compound 0.0316 µM
[8] = second compound 0.1 µM, first compound 0.1 µM
[9] = second compound 0.316 µM, first compound 0.00316 µM
[10] = second compound 0.316 µM, first compound 0.01 µM
[11] = second compound 0.316 µM, first compound 0.0316 µM
[12] = second compound 0.316 µM, first compound 0.1 µM
[13] = second compound 1 µM, first compound 0.00316 µM
[14] = second compound 1 µM, first compound 0.01 µM
[15] = second compound 1 µM, first compound 0.0316 µM
[16] = second compound 1 µM, first compound 0.1 µM
[17] = second compound 3.16 µM, first compound 0.00316 µM
[18] = second compound 3.16 µM, first compound 0.01 µM
[19] = second compound 3.16 µM, first compound 0.0316 µM
[20] = second compound 3.16 µM, first compound 0.1 µM
[21] = second compound 10 µM, first compound 0.00316 µM
[22] = second compound 10 µM, first compound 0.01 µM
[23] = second compound 10 µM, first compound 0.0316 µM
[24] = second compound 10 µM, first compound 0.1 µM
[25] = second compound 0.0316 µM, first compound 0.316 µM
[26] = second compound 0.0316 µM, first compound 1 µM
[27] = second compound 0.1 µM, first compound 0.316 µM
[28] = second compound 0.1 µM, first compound 1 µM
[29] = second compound 0.316 µM, first compound 0.316 µM
[30] = second compound 0.316 µM, first compound 1 µM
[31] = second compound 1 µM, first compound 0.316 µM
[32] = second compound 1 µM, first compound 1 µM
[33] = second compound 3.16 µM, first compound 0.316 µM
[34] = second compound 3.16 µM, first compound 1 µM
[35] = second compound 10 µM, first compound 0.316 µM
[36] = second compound 10 µM, first compound 1 µM
[37] = second compound 0.0316 µM, first compound 3.16 µM
[38] = second compound 0.0316 µM, first compound 10 µM
[39] = second compound 0.1 µM, first compound 3.16 µM
[40] = second compound 0.1 µM, first compound 10 µM
[41] = second compound 0.316 µM, first compound 3.16 µM
[42] = second compound 0.316 µM, first compound 10 µM
[43] = second compound 1 µM, first compound 3.16 µM
[44] = second compound 1 µM, first compound 10 µM
[45] = second compound 3.16 µM, first compound 3.16 µM
[46] = second compound 3.16 µM, first compound 10 µM
[47] = second compound 10 µM, first compound 3.16 µM
[48] = second compound 10 µM, first compound 10 µM
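Further: spheroids exposed to compounds for 7 days.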
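Wherever viability, T/C is given: 100% = DMSO vehicle-treated spheroids.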

## CC[C@@]1(O)C(=O)OCc2c1cc1n(c2=O)Cc2cc3c(CN(C)C)c(O)ccc3nc2-1 + Cc1cccc(N(C)C(=O)C2C(O)CCN2c2nc(C)cc(C(F)(F)F)c2C#N)c1
Second compound 0.0316 µM
  pIC50: 8.16
Second compound 0.1 µM
  pIC50: 8.12
Second compound 0.316 µM
  pIC50: 8.09
Second compound 1 µM
  pIC50: 8.16
Second compound 3.16 µM
  pIC50: 8.14
Second compound 10 µM
  pIC50: 8.16
Second compound 0.0316 µM, first compound 0.000316 µM
  viability, T/C: 109%
Second compound 0.0316 µM, first compound 0.001 µM
  viability, T/C: 121%
[1]
  viability, T/C: 78.5%
[2]
  viability, T/C: 38%
[3]
  viability, T/C: 22.6%
[4]
  viability, T/C: 18.1%
Second compound 0.1 µM, first compound 0.000316 µM
  viability, T/C: 87.9%
Second compound 0.1 µM, first compound 0.001 µM
  viability, T/C: 118%
[5]
  viability, T/C: 72.8%
[6]
  viability, T/C: 43.6%
[7]
  viability, T/C: 23.5%
[8]
  viability, T/C: 17.4%
Second compound 0.316 µM, first compound 0.000316 µM
  viability, T/C: 103%
Second compound 0.316 µM, first compound 0.001 µM
  viability, T/C: 96.8%
[9]
  viability, T/C: 61.6%
[10]
  viability, T/C: 54.1%
[11]
  viability, T/C: 20%
[12]
  viability, T/C: 15.3%
Second compound 1 µM, first compound 0.000316 µM
  viability, T/C: 124%
Second compound 1 µM, first compound 0.001 µM
  viability, T/C: 84.9%
[13]
  viability, T/C: 76.2%
[14]
  viability, T/C: 38.9%
[15]
  viability, T/C: 22%
[16]
  viability, T/C: 17.2%
Second compound 3.16 µM, first compound 0.000316 µM
  viability, T/C: 89.7%
Second compound 3.16 µM, first compound 0.001 µM
  viability, T/C: 123%
[17]
  viability, T/C: 83.2%
[18]
  viability, T/C: 37.2%
[19]
  viability, T/C: 21.4%
[20]
  viability, T/C: 16.8%
Second compound 10 µM, first compound 0.000316 µM
  viability, T/C: 89.5%
Second compound 10 µM, first compound 0.001 µM
  viability, T/C: 113%
[21]
  viability, T/C: 82.7%
[22]
  viability, T/C: 34.8%
[23]
  viability, T/C: 22.2%
[24]
  viability, T/C: 14.6%

## CCc1c2c(nc3ccc(O)cc13)-c1cc3c(c(=O)n1C2)COC(=O)[C@]3(O)CC + Cc1cccc(N(C)C(=O)C2C(O)CCN2c2nc(C)cc(C(F)(F)F)c2C#N)c1
Second compound 0.0316 µM
  pIC50: > 8.50
Second compound 0.1 µM
  pIC50: > 8.50
Second compound 0.316 µM
  pIC50: > 8.50
Second compound 1 µM
  pIC50: > 8.50
Second compound 3.16 µM
  pIC50: > 8.50
Second compound 10 µM
  pIC50: > 8.50
[1]
  viability, T/C: 25.3%
[2]
  viability, T/C: 19%
[3]
  viability, T/C: 13.3%
[4]
  viability, T/C: 7.02%
[25]
  viability, T/C: 5.47%
[26]
  viability, T/C: 2.88%
[5]
  viability, T/C: 24.9%
[6]
  viability, T/C: 16.9%
[7]
  viability, T/C: 11.1%
[8]
  viability, T/C: 8.13%
[27]
  viability, T/C: 5.27%
[28]
  viability, T/C: 3.6%
[9]
  viability, T/C: 16.9%
[10]
  viability, T/C: 15.3%
[11]
  viability, T/C: 11.9%
[12]
  viability, T/C: 9.03%
[29]
  viability, T/C: 5.25%
[30]
  viability, T/C: 3.06%
[13]
  viability, T/C: 24.7%
[14]
  viability, T/C: 18.8%
[15]
  viability, T/C: 11.3%
[16]
  viability, T/C: 5.74%
[31]
  viability, T/C: 5.46%
[32]
  viability, T/C: 3.33%
[17]
  viability, T/C: 19.6%
[18]
  viability, T/C: 15.9%
[19]
  viability, T/C: 12.5%
[20]
  viability, T/C: 8.19%
[33]
  viability, T/C: 4.73%
[34]
  viability, T/C: 2.56%
[21]
  viability, T/C: 20.8%
[22]
  viability, T/C: 17%
[23]
  viability, T/C: 11.3%
[24]
  viability, T/C: 7.07%
[35]
  viability, T/C: 5.05%
[36]
  viability, T/C: 2.83%

## Nc1ccn(C2OC(CO)C(O)C2(F)F)c(=O)n1 (stereo not drawn) + Cc1cccc(N(C)C(=O)C2C(O)CCN2c2nc(C)cc(C(F)(F)F)c2C#N)c1
Second compound 0.0316 µM
  pIC50: > 7.50
Second compound 0.1 µM
  pIC50: > 7.50
Second compound 0.316 µM
  pIC50: > 7.50
Second compound 1 µM
  pIC50: > 7.50
Second compound 3.16 µM
  pIC50: > 7.50
Second compound 10 µM
  pIC50: > 7.50
[3]
  viability, T/C: 4.93%
[4]
  viability, T/C: 6.34%
[25]
  viability, T/C: 5.78%
[26]
  viability, T/C: 4.47%
[37]
  viability, T/C: 4.13%
[38]
  viability, T/C: 3%
[7]
  viability, T/C: 5.1%
[8]
  viability, T/C: 4.91%
[27]
  viability, T/C: 5.63%
[28]
  viability, T/C: 4.62%
[39]
  viability, T/C: 3.58%
[40]
  viability, T/C: 2.89%
[11]
  viability, T/C: 6.1%
[12]
  viability, T/C: 5.35%
[29]
  viability, T/C: 5.35%
[30]
  viability, T/C: 5.17%
[41]
  viability, T/C: 4.11%
[42]
  viability, T/C: 2.77%
[15]
  viability, T/C: 4.92%
[16]
  viability, T/C: 5.99%
[31]
  viability, T/C: 4.9%
[32]
  viability, T/C: 4.77%
[43]
  viability, T/C: 3.54%
[44]
  viability, T/C: 2.95%
[19]
  viability, T/C: 5.03%
[20]
  viability, T/C: 5.55%
[33]
  viability, T/C: 6.02%
[34]
  viability, T/C: 4.31%
[45]
  viability, T/C: 4.69%
[46]
  viability, T/C: 3.24%
[23]
  viability, T/C: 6.79%
[24]
  viability, T/C: 5.07%
[35]
  viability, T/C: 5.13%
[36]
  viability, T/C: 4.16%
[47]
  viability, T/C: 4.17%
[48]
  viability, T/C: 2.99%

## O=C(c1cc(Cc2n[nH]c(=O)c3ccccc23)ccc1F)N1CCN(C(=O)C2CC2)CC1 + Cc1cccc(N(C)C(=O)C2C(O)CCN2c2nc(C)cc(C(F)(F)F)c2C#N)c1
Second compound 0.0316 µM
  pIC50: 5.40
Second compound 0.1 µM
  pIC50: 5.73
Second compound 0.316 µM
  pIC50: 5.58
Second compound 1 µM
  pIC50: 5.54
Second compound 3.16 µM
  pIC50: 5.44
Second compound 10 µM
  pIC50: 5.34
[3]
  viability, T/C: 75.4%
[4]
  viability, T/C: 97.7%
[25]
  viability, T/C: 89.7%
[26]
  viability, T/C: 69.4%
[37]
  viability, T/C: 59.6%
[38]
  viability, T/C: 21.8%
[7]
  viability, T/C: 84.1%
[8]
  viability, T/C: 75.5%
[27]
  viability, T/C: 93.3%
[28]
  viability, T/C: 60.7%
[39]
  viability, T/C: 42.4%
[40]
  viability, T/C: 28.9%
[11]
  viability, T/C: 119%
[12]
  viability, T/C: 61.2%
[29]
  viability, T/C: 78.2%
[30]
  viability, T/C: 82.7%
[41]
  viability, T/C: 44.5%
[42]
  viability, T/C: 26.3%
[15]
  viability, T/C: 104%
[16]
  viability, T/C: 100%
[31]
  viability, T/C: 74.2%
[32]
  viability, T/C: 66.4%
[43]
  viability, T/C: 54.2%
[44]
  viability, T/C: 26.6%
[19]
  viability, T/C: 108%
[20]
  viability, T/C: 111%
[33]
  viability, T/C: 81.6%
[34]
  viability, T/C: 64.4%
[45]
  viability, T/C: 60.3%
[46]
  viability, T/C: 30.2%
[23]
  viability, T/C: 115%
[24]
  viability, T/C: 87.6%
[35]
  viability, T/C: 104%
[36]
  viability, T/C: 76.2%
[47]
  viability, T/C: 64.6%
[48]
  viability, T/C: 25.2%

Source: PubChem BioAssay AID1963839 (Molecular Pharmacology Branch, DTP, NCI, 2024)
